According to US20240182521A1, “CELL-PENETRATING PEPTIDE VARIANT AND USE THEREOF” (REGEN INNOPHARM INC., priority 2021, published 2024):

Columns and labels:
[1] = system: diabetes model mice (db/db); assay: Diabetic wound healing in diabetes model mice (db/db); assay type: in vivo, mouse; conditions: for diabetic wound healing effect (wound healing kinetics and re-epithelialization) compared to LPX101: db/db mouse model
Experimental: (§1) The skins of wild type (WT) mice and diabetes model mice (db/db) (n=14 each) were punched with an 8 mm diameter puncher and treated with LPX101 (2 mg/ml, 20 μl) or PBS daily for 14 days and subjected to wound dressing. The wound healing effect was confirmed by analyzing an initial wound area and a re-epithelialization area using ImageJ (mean SEM n=3, *; p<0.05). In addition, the wound healing effect in wounds treated with LPX101 was histologically evaluated. Specifically, diabetic mice (db/db) were stained with H/E or trichrome at 7 and 14 days after wound induction and then confirmed under a microscope, and re-epithelialization and granulation tissue were quantified using ImageJ (n=3, ***; p<0.001). In addition, the wounds of db/db mice were treated with LPX101, and the tissue epidermis after 14 days was histologically analyzed.
(§2) The wound healing effects of LPX101, LPX102, and LPX103 were confirmed in an STZ-induced diabetic mouse model. […] Thereafter, according to a schedule shown in FIG. 12A, PBS (negative control), EGF (positive control) 50 μg/ml, LPX101 2 mg/ml (20 μl), LPX102 and LPX103 (2 mg/ml (20 μl)) were treated, respectively, and then the effect of wound healing in a diabetes-induced mouse model was confirmed through imaging, re-epithelialization, and diabetes phenotypes (hyperglycemia and impaired glucose tolerance test (IPGTT)) (n=10 for each group, *; p<0.05). Additionally, to compare the regenerative activity of LPX peptides in a diabetic mouse model, wound healing kinetics measured by a % non-epithelialized area to an initial wound area (n=8 for each group), and quantification of re-epithelialization analyzed as % of a re-epithelialized area to the initial wound area were confirmed.

wild type (WT) mice = assay: Skin punch wound healing in wild type mice; assay type: in vivo, mouse; conditions: 2 mg/ml, 20 μl daily for 14 days
Experimental: as §1

NIH3T3 cells [2] = assay: Glycolysis, extracellular acidification rate (ECAR), Seahorse XF analyzer; assay type: cell-based, mouse
Experimental: NIH3T3 cells were incubated in a glucose-free medium for 1 day and then sequentially treated with glucose, oligomycin, and 2-DG, and an extracellular acidification rate (ECAR) was measured as a measure of lactate production using a Seahorse extracellular flux (XF) analyzer and quantification and profile of ECAR were confirmed in cells treated with LPX peptide (Mean SEM n=3, *; p<0.05).

[3] = system: NIH3T3 cell line and mouse mesenchymal stem cells (mMSCs); assay: Cell penetrating effect (FACS, confocal microscopy) of FITC-attached peptides; assay type: cell-based; conditions: for cell permeability compared to LPX101: compared to LPX101 (2 μM)
From the text: A cell penetrating effect was confirmed in penetrating peptides LPX101 (SEQ ID NO: 11), LPX102 (SEQ ID NO: 12), and LPX103 (SEQ ID NO: 13) having three structures including a signal peptide, an RNA binding affinity residue, and an RNA binding residue (FIG. 1), and two zinc finger motifs. Specifically, in order to measure cell penetrating efficiency, respective peptides that may have been attached to the cell membrane surface were removed by applying a Heparin & Trypsin washing method used in a Keplan group [Kaplan I M, Wadia J S, Dowdy S F (2005) Cationic TAT peptide transduction domain enters cells by macropinocytosis. J Controlled release 102: 247-253] to a NIH3T3 cell line and mouse mesenchymal stem cells (mMSCs). […] Then, the cells were washed three times with PBS and detached with trypsin, and then FACS analysis was performed. In addition, whether each peptide actually existed in the nucleus or cytoplasm of the cell was confirmed by confocal microscopy after 18 hours of peptide treatment, and membrane binding was labeled with PKH.

[4] = system: diabetic mouse model (db/db); assay: Diabetic wound healing by combined treatment with EGF; assay type: in vivo; conditions: db/db mice, 8 mm punch wound
From the text: The diabetic wound healing effect by combined treatment with LPX peptide and EGF was confirmed.

[5] = system: Human umbilical vein endothelial cells (Huvec); assay: Blood vessel formation on cytokine-free Matrigel; assay type: cell-based; conditions: Huvec treated for one day
From the text: Human umbilical vein endothelial cells (Huvec) were dispensed on a cytokine-free Matrigel and treated with LPX101 for one day (n=3, 1 expt). […], the blood vessel formation was confirmed under a microscope, and blood vessel formation parameters including the number of nodules, the number of intravascular junctions, and the number of master segments were quantified.

[6] = system: diabetic human epidermal keratinocyte (DHEK); assay: Cell migration across a scratched boundary; assay type: cell-based; conditions: for cell migration compared to LPX101: DHEK cells, at lower concentrations than LPX101
Experimental: (§3) An effect of LPX101 peptide on cell growth was confirmed in a NIH3T3 cell line, and the effects of LPX101, LPX102, and LPX103 peptides on cell migration were confirmed in diabetic human epidermal keratinocyte (DHEK) as a diabetic cell line. Specifically, mMSC or NIH3T3 cells were treated with the LPX101 peptide, incubated for 1 hour, and then washed. A % increase in cell growth by LPX treatment was confirmed by measuring the number of cells after 3 days of treatment and calculating a relative proliferation rate as % compared to a control group (n=3). Additionally, in order to confirm the cell migration effect, DHEK cells were treated with LPX101, LPX102, and LPX103 peptides, incubated for 1 hour, and then washed. Thereafter, the migration of cells across a scratched boundary was measured 72 hours after treatment. The number of cells that migrated across a scratch line was measured by image analysis using ImageJ.

diabetic mice (db/db) = assay: Histological evaluation of wound re-epithelialization (H/E, day 10); assay type: in vivo, mouse; conditions: day 10 after initial injury
From the text: In order to histologically evaluate wound re-epithelialization in diabetic mice by LPX peptides 101, 102 and 103, wound tissues from diabetic mice (db/db) treated by each LPX were H/E stained on day 10 after initial injury and confirmed under a microscope (50X and 100x).

NIH3T3 cell line = assay: Cell growth (relative proliferation rate vs control, 3 days); assay type: cell-based, mouse; conditions: concentrations of 2 μM and 5 μM; 3 days after treatment
Experimental: as §3

NIH3T3 cells [7] = assay: Cell migration effects, Table 1; assay type: cell-based, mouse; conditions: vehicle = 1
Experimental: Various variants of the LPX peptides were prepared as illustrated in FIG. 18. Specifically, various constructs (26 constructs including 101) were prepared by adding various mutations (substitution of a CPP region, amino acid mutation of an RNA binding portion and a zinc finger structure, and addition of his-tag) to the structure of LPX101 in FIG. 19 (FIG. 20).

[8] = system: STZ-induced diabetic mouse model; assay: Wound healing in STZ-induced diabetic mouse model; assay type: in vivo; conditions: 2 mg/ml (20 μl)
Experimental: as §2

NIH3T3 cells [9] = assay: Intracellular stability, cell proliferation and migration of RNA binding / zinc finger region variants; assay type: cell-based, mouse
Experimental: The protein stability of variants with mutations in the RNA binding region and the zinc finger region was confirmed. Specifically, LPX103 variants with mutated amino acid residues for RNA binding during cell migration were treated with NIH3T3 cells for 1 day, respectively, and based on the molecular modeling program, the intracellular stabilization effect of each peptide was analyzed after 72 hours. The mutation energy of each amino acid residue was confirmed, and variants that may cause<−1 Kcal/mol due to substitution were selected as potential mutations that may increase the stability and activity of the peptide (FIGS. 23 and 24). The effects of the selected variants on cell proliferation and cell migration were confirmed in NIH3T3 cells (FIG. 25), and as a result, mutations in the RNA binding region and the zinc finger region that improved or decreased the stability of the peptide in the cell were confirmed (FIG. 26).

[10] = system: diabetic model mice (db/db); assay: Blood vessel formation in diabetic wounds (histology, day 7); assay type: in vivo, mouse; conditions: once daily, day 7 after wounding
Experimental: Since diabetic ulcers were hardly treated by insufficient vascular supply due to impaired angiogenesis and ischemic necrosis, it was confirmed whether the LPX peptide contributed to blood vessel formation in diabetic wound healing. Specifically, diabetic model mice (db/db) were wounded and then treated with LPX 103 or EGF once daily, and the recovery of angiogenesis was analyzed on day 7 after wounding, and in order to visualize the extravasation of red blood cells within the tissue, the wound and entrance (red dotted box) of each group were magnified and images were confirmed.

Substance: LPX101: cell-penetrating peptide consisting of amino acid sequence SEQ ID NO: 11 (RRPKGKSMQKRRSKGDRCYNCGGLDHHAKECKLPPQPKKCHFCQSISHMVASCPLKAQQK; LPX101)
- healing of diabetic wounds ([1]; db/db mice, 2 mg/ml, 20 μl daily for 14 days): significantly accelerated the healing of diabetic wounds
- granulation tissue, day 7 ([1]; db/db mice, day 7 (middle of the healing process)): early formation of granulation tissue
- remodeling of the regenerated wound epithelium ([1]; db/db mice, day 14): accelerated
- granulation tissue, day 14 ([1]; db/db mice, day 14 (end of the healing process)): early shrinkage (remodeling) of granulation tissue
- hyperkeratosis, parakeratosis and acanthosis of the epidermis ([1]; db/db mice, histological analysis on day 14): reduced early
- wound healing (wild type (WT) mice): accelerated wound healing
- glucose metabolism (glycolysis), ECAR (NIH3T3 cells [2]): promoted glucose metabolism (glycolysis)
- cell permeability ([3]; concentrations of 2 μM and 5 μM): high cell permeability
- intracellular localization ([3]; confocal microscopy after 18 hours of peptide treatment): most of LPX101 was present in the cytoplasm
- diabetic wound healing effect in combination with EGF [4]: improved when treated in combination with EGF
- blood vessel formation (capillary vascular rings) [5]: form more mature capillary vascular rings
- migration of DHEK cells ([6]; 72 hours after treatment): promoted the migration of DHEK cells
- re-epithelialization of diabetic wounds (histology) (diabetic mice (db/db)): significantly improved re-epithelialization
- cell growth (NIH3T3 cell line): promoted cell growth
- Effects on cell migration (3 expts) (NIH3T3 cells [7]; 1 uM): 1.4
- Effects on cell migration (3 expts) (NIH3T3 cells [7]; 5 uM): 1.3

Substance: LPX102: cell-penetrating peptide consisting of amino acid sequence SEQ ID NO: 12 (GSERRPKGKSMQKRRSKGDRCYNCGGLDHHAKECKLPPQPKKCHFCQSISHMVASCPL; LPX102)
- diabetic wound healing effect (wound healing kinetics and re-epithelialization) compared to LPX101 [1]: better diabetic wound healing effect than LPX101
- glucose metabolism (glycolysis), ECAR (NIH3T3 cells [2]): promoted glucose metabolism (glycolysis)
- cell permeability compared to LPX101 [3]: high cell permeability similar to LPX101
- diabetic wound healing effect in combination with EGF [4]: improved when treated in combination with EGF
- cell migration compared to LPX101 [6]: promoted cell migration to a similar extent to LPX101
- re-epithelialization of diabetic wounds (histology) (diabetic mice (db/db)): significantly improved re-epithelialization
- wound healing effect compared to LPX101 [8]: better effects than LPX101
- Effects on cell migration (3 expts) (NIH3T3 cells [7]; 1 uM): 1.2
- Effects on cell migration (3 expts) (NIH3T3 cells [7]; 5 uM): 1.2

Substance: LPX103: cell-penetrating peptide consisting of amino acid sequence SEQ ID NO: 13 (GSERRPKGKSMQKRRSKGDRCYNCGGLDHHAKECKL; LPX103)
- diabetic wound healing effect (wound healing kinetics and re-epithelialization) compared to LPX101 [1]: better diabetic wound healing effect than LPX101
- glucose metabolism (glycolysis), ECAR (NIH3T3 cells [2]): promoted glucose metabolism (glycolysis)
- stability and biological activity (NIH3T3 cells [9]): high stability and biological activity
- cell permeability compared to LPX101 [3]: high cell permeability similar to LPX101
- diabetic wound healing effect in combination with EGF [4]: improved when treated in combination with EGF
- cell migration compared to LPX101 [6]: promoted cell migration to a similar extent to LPX101
- re-epithelialization of diabetic wounds (histology) (diabetic mice (db/db)): significantly improved re-epithelialization
- wound healing effect compared to LPX101 [8]: better effects than LPX101
- capillary formation compared to EGF [10]: more mature capillary formation
- hemorrhage (extravasation of RBC) compared to EGF [10]: less hemorrhage (extravasation of RBC)
- Effects on cell migration (3 expts) (NIH3T3 cells [7]; 1 uM): 1.3
- Effects on cell migration (3 expts) (NIH3T3 cells [7]; 5 uM): 1.3
